Assay results taken from ChEMBL document CHEMBL2440081 (Bioorg Med Chem, 2013).
pKi: −log10 of the molar value.

Target: Carbonic anhydrase 13 (Homo sapiens, UniProt Q8N1Q1)
Sequence (Q8N1Q1 whole entry): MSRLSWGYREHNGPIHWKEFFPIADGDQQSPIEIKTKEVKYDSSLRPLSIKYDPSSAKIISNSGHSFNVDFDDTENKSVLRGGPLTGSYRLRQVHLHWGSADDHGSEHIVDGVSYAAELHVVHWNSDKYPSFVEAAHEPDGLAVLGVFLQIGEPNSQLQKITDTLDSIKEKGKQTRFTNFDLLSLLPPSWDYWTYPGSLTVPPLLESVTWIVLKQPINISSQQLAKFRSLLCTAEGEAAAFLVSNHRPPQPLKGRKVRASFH
Description: Inhibition of human carbonic anhydrase13 preincubated for 15 mins by stopped-flow CO2 hydration assay

Structure (SMILES): CCN[C@H]1CN(CCCOC)S(=O)(=O)c2sc(S(N)(=O)=O)cc21 [BRINZOLAMIDE]
- pKi: 7.96
